From ChEMBL document CHEMBL6153170 (J Med Chem, 2025)

Assays:
[1] = target: Programmed cell death protein 1/Programmed cell death 1 ligand 1 (Homo sapiens, UniProt Q9NZQ7); test: Inhibition of PD-1/PD-L1 (unknown origin) protein-protein interaction by HTRF assay; format: protein-complex assay
[2] = target: T1, Protein deacetylase HDAC6 (Homo sapiens) (UniProt Q9UBN7); conditions: Sf9, dose 100.0 nM, time 30.0 min
T1 sequence (whole entry): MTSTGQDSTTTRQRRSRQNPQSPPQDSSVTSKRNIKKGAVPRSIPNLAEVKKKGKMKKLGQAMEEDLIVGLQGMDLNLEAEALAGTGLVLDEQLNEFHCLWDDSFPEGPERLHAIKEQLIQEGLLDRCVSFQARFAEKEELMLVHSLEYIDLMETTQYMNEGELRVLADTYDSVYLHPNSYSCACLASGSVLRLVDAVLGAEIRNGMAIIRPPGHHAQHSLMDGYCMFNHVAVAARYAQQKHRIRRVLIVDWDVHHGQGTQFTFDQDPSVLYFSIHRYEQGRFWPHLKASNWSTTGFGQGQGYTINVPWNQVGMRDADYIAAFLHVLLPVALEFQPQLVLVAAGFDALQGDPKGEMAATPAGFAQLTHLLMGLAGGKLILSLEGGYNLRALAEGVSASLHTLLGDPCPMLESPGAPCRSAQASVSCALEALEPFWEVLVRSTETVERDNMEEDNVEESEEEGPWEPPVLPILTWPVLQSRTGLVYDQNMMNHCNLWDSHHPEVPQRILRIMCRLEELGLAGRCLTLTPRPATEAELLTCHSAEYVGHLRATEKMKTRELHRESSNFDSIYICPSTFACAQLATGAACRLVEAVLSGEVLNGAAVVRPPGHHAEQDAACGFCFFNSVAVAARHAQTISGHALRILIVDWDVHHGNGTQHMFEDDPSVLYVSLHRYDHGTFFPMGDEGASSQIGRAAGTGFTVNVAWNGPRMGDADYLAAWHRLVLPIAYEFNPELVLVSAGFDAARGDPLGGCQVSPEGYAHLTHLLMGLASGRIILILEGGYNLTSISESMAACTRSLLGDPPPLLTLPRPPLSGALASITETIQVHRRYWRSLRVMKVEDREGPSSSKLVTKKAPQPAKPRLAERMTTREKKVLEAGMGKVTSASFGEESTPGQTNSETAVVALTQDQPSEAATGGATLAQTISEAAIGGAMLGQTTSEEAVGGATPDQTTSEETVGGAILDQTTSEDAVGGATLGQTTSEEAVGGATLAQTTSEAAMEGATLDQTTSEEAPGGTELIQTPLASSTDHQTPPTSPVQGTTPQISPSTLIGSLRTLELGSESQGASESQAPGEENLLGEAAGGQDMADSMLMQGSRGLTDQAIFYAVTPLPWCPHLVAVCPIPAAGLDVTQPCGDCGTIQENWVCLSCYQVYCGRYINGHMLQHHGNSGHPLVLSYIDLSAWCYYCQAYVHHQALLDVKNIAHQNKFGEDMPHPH

[3] = tested on: B16-F10; test: cells; conditions: Mus musculus, B16-F10, 48 h
[4] = tested on: HepG2; test: cells; conditions: Homo sapiens, HepG2, 48 h
[5] = tested on: MCF7; test: cells; conditions: Homo sapiens, MCF7, 48 h
[6] = tested on: Jurkat; test: cells; conditions: Homo sapiens, 72 h
[7] = target: T2, Histone deacetylase 7 (Homo sapiens, UniProt Q8WUI4); test: Inhibition of N-terminal GST-tagged recombinant human HDAC7 (501 to 952 residues) extracted from baculovirus expression system using Ac-Leu-Gly-Lys (Tfa)-AMC as substrate preincubated for 5 mins followed by substrate addition and measured after 30 mins by fluorescence microplate reader analysis
T2 sequence (Q8WUI4 whole entry): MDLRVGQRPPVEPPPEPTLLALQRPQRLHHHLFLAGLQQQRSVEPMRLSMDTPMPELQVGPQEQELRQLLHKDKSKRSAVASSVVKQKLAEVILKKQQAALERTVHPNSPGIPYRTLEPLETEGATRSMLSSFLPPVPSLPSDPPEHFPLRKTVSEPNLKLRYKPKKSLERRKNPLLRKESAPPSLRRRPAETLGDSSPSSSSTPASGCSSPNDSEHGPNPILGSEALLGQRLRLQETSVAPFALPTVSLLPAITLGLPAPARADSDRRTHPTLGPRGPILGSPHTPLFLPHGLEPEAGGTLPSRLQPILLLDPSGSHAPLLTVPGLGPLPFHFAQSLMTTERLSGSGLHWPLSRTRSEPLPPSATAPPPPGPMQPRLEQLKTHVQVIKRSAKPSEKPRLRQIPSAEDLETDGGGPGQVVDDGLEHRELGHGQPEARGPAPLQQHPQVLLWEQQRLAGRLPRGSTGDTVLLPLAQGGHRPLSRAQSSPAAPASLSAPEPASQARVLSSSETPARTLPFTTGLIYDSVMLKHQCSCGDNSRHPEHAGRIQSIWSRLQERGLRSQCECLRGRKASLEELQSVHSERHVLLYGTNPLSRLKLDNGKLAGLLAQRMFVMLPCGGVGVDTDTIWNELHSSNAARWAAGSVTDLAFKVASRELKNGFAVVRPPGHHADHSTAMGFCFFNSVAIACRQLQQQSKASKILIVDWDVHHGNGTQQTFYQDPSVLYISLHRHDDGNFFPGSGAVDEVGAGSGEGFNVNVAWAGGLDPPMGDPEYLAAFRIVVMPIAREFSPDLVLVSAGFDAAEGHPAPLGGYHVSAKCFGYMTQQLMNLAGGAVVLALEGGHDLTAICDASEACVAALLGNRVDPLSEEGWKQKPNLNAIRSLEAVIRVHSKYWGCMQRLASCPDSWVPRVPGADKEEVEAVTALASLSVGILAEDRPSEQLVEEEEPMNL

[8] = target: T3, Histone deacetylase 8 (Homo sapiens, UniProt Q9BY41); test: Inhibition of C-terminal His-tagged recombinant full length human HDAC8 extracted from baculovirus infected Sf9 insect cells preincubated for 5 mins followed by substrate addition and measured after 30 mins by fluorescence microplate reader analysis
T3 sequence (Q9BY41 whole entry): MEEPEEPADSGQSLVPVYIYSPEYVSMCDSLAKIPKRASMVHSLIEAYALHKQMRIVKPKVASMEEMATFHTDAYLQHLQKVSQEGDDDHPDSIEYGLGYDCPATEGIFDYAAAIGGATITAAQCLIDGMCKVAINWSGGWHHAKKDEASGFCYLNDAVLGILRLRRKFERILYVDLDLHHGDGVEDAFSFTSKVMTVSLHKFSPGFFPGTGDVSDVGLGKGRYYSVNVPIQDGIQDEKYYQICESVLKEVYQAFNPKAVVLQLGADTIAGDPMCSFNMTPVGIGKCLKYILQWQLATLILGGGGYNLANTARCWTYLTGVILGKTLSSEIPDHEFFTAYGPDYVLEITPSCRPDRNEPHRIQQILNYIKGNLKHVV

Sequence of Programmed cell death protein 1/Programmed cell death 1 ligand 1 (Q15116 whole entry): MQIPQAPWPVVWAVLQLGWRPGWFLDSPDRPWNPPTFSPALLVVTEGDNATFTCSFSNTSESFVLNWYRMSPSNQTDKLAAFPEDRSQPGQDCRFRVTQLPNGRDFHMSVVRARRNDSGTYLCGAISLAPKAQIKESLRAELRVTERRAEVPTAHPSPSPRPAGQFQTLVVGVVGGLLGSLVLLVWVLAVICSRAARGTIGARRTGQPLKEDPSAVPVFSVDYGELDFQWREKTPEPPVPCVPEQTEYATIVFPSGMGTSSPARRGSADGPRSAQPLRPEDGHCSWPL
Sequence of Programmed cell death protein 1/Programmed cell death 1 ligand 1 (Q9NZQ7 whole entry): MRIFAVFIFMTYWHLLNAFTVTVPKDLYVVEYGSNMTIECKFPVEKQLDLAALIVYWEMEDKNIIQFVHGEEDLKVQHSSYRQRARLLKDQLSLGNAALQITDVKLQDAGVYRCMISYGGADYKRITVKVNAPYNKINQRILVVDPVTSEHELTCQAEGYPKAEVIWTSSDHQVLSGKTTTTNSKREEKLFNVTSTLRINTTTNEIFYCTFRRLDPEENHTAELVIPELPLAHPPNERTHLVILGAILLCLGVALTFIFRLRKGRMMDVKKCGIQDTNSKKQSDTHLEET

| Structure (SMILES) | inhibition [2] [%] | IC50 [1] [nM] | other results |
| --- | --- | --- | --- |
| COc1nc(-c2cccc(-c3ccccc3)c2C)ccc1CNCCCC(=O)Nc1ccccc1N |  | 83.7 | IC50 [3]: 9820 nM; IC50 [4]: > 10000 nM; IC50 [5]: > 10000 nM; IC50 [6]: 7570 nM |
| COc1nc(OCc2cccc(-c3ccccc3)c2C)ccc1CNCCCCCC(=O)Nc1ccccc1N |  | 96.3 |  |
| COc1nc(OCc2cccc(-c3ccccc3)c2C)ccc1CN1CCC(C(=O)Nc2ccccc2N)C1 (stereo not drawn) |  | 72.2 |  |
| COc1nc(-c2cccc(-c3ccccc3)c2C)ccc1Cn1ccc(C(=O)Nc2ccccc2N)c1 |  | 85.2 |  |
| COc1nc(OCc2cccc(-c3ccccc3)c2C)ccc1CNCCCCCCC(=O)NO |  | 59.2 | IC50 [7]: > 100000 nM; IC50 [8]: > 10000 nM; IC50 [3]: > 10000 nM; IC50 [4]: > 10000 nM; IC50 [5]: > 10000 nM; IC50 [6]: > 10000 nM |
| COc1nc(OCc2cccc(-c3ccccc3)c2C)ccc1CN1CCCC1C(=O)Nc1ccccc1N (stereo not drawn) |  | > 1000 |  |
| COc1nc(-c2cccc(-c3ccccc3)c2C)ccc1CNCCCCCC(=O)NO |  | 69.4 | IC50 [7]: > 100000 nM; IC50 [3]: > 10000 nM; IC50 [4]: > 10000 nM; IC50 [5]: > 10000 nM; IC50 [6]: > 10000 nM |
| COc1nc(-c2cccc(-c3ccccc3)c2C)ccc1CNCCCC(=O)NO |  | 20.8 | IC50 [7]: > 100000 nM; IC50 [8]: > 10000 nM |
| COc1nc(-c2cccc(-c3ccccc3)c2C)ccc1CNCCCCCCC(=O)Nc1ccccc1N |  | 100 |  |
| COc1nc(-c2cccc(-c3ccccc3)c2C)ccc1CNCCCCCC(=O)Nc1ccccc1N |  | 88 |  |
| COc1nc(OCc2cccc(-c3ccccc3)c2C)ccc1CNCCCC(=O)NO |  | > 1000 |  |
| COc1nc(-c2cccc(-c3ccccc3)c2C)ccc1CNc1ccc(C(=O)NO)s1 |  | 100 |  |
| COc1nc(-c2cccc(-c3ccccc3)c2C)ccc1CNCCC(=O)NO |  | 67.6 |  |
| COc1nc(-c2cccc(-c3ccccc3)c2C)ccc1CNCC(=O)NO |  | 16.3 | IC50 [7]: 10000 nM; IC50 [8]: > 10000 nM; IC50 [3]: 8500 nM; IC50 [4]: > 10000 nM; IC50 [5]: > 10000 nM; IC50 [6]: 9000 nM |
| COc1nc(-c2cccc(-c3ccccc3)c2C)ccc1CN1CCC(C(=O)Nc2ccccc2N)C1 (stereo not drawn) |  | 99 |  |
| COc1nc(-c2cccc(-c3ccccc3)c2C)ccc1CNCCCCC(=O)Nc1ccccc1N |  | 100 |  |
| COc1nc(OCc2cccc(-c3ccccc3)c2C)ccc1CNc1ccc(C(=O)NO)cc1 |  | 100 |  |
| COc1nc(OCc2cccc(-c3ccccc3)c2C)ccc1CNCCCCCC(=O)NO |  | 68.3 |  |
| COc1nc(OCc2cccc(-c3ccccc3)c2C)ccc1CNc1ccc(CC(=O)NO)cc1 |  | 100 |  |
| COc1nc(OCc2cccc(-c3ccccc3)c2C)ccc1CNc1ccc(C(=O)Nc2ccccc2N)cc1 |  | > 1000 |  |
| COc1nc(-c2cccc(-c3ccccc3)c2C)ccc1CNc1ccc(CC(=O)NO)cc1 |  | 64.3 |  |
| COc1nc(OCc2cccc(-c3ccccc3)c2C)ccc1CNCCCCCCC(=O)Nc1ccccc1N |  | 83.6 |  |
| COc1nc(OCc2cccc(-c3ccccc3)c2C)ccc1CNc1cc(C(=O)NO)c[nH]1 |  | 87.6 |  |
| COc1nc(-c2cccc(-c3ccccc3)c2C)ccc1CNc1ccc2cc(C(=O)Nc3ccccc3N)ccc2c1 |  | > 1000 |  |
| COc1nc(OCc2cccc(-c3ccccc3)c2C)ccc1CNc1cccc(C(=O)NO)c1 |  | 100 |  |

More lines, main results first:

| inhibition [2] [%] | Structure (SMILES) | IC50 [1] [nM] | other results |
| --- | --- | --- | --- |
| < 10 | CCC[C@@H](NCc1ccc(OCc2cccc(-c3ccccc3)c2C)nc1OC)C(=O)Nc1ccccc1N | 97.5 |  |
| < 10 | COc1nc(OCc2cccc(-c3ccccc3)c2C)ccc1CNC(C)(C)C(=O)NO | > 1000 |  |
| < 10 | Nc1ccccc1NC(=O)c1ccc(CNC(=O)OCc2cccnc2)cc1 |  |  |
| < 10 | COc1nc(-c2cccc(-c3ccccc3)c2C)ccc1CNc1ccc(CC(=O)Nc2ccccc2N)cc1 | 100 |  |
| < 13.5 | CC[C@@H](NCc1ccc(-c2cccc(-c3ccccc3)c2C)nc1OC)C(=O)Nc1ccccc1N | > 1000 |  |
| < 13.5 | COc1nc(-c2cccc(-c3ccccc3)c2C)ccc1CNC1(C(=O)Nc2ccccc2N)CCCC1 | > 1000 |  |
| < 10 | COc1nc(OCc2cccc(-c3ccccc3)c2C)ccc1CNC1CCC(C(=O)Nc2ccccc2N)CC1 (stereo not drawn) | > 1000 |  |
| < 10 | COc1nc(OCc2cccc(-c3ccccc3)c2C)ccc1CNCC(=O)NO | 93.5 |  |
| < 10 | CC[C@@H](NCc1ccc(OCc2cccc(-c3ccccc3)c2C)nc1OC)C(=O)Nc1ccccc1N | 100 |  |
| < 10 | COc1nc(-c2cccc(-c3ccccc3)c2C)ccc1CN1CCC(C(=O)Nc2ccccc2N)CC1 | 100 |  |
| < 13.5 | COc1nc(-c2cccc(-c3ccccc3)c2C)ccc1CNC1CCC(C(=O)Nc2ccccc2N)CC1 (stereo not drawn) | > 1000 |  |
| < 10 | COc1nc(-c2cccc(-c3ccccc3)c2C)ccc1CNc1cc(C(=O)NO)c[nH]1 | 100 |  |
| < 10 | COc1nc(-c2cccc(-c3ccccc3)c2C)ccc1CNc1ccc(C(=O)Nc2ccccc2N)s1 | 100 |  |
| < 10 | COc1nc(-c2cccc(-c3ccccc3)c2C)ccc1CN1CCN(C(=O)NO)CC1 | 100 |  |
| < 10 | COc1nc(OCc2cccc(-c3ccccc3)c2C)ccc1CNC(C)(C)CC(=O)Nc1ccccc1N | 90.6 |  |
| < 10 | CCCC[C@@H](NCc1ccc(OCc2cccc(-c3ccccc3)c2C)nc1OC)C(=O)Nc1ccccc1N | 100 |  |
| < 10 | COc1nc(-c2cccc(-c3ccccc3)c2C)ccc1CNc1cccc(C(=O)Nc2ccccc2N)c1 | > 1000 |  |
| < 13.5 | CCCC[C@@H](NCc1ccc(-c2cccc(-c3ccccc3)c2C)nc1OC)C(=O)Nc1ccccc1N | > 1000 |  |
